Data from PubChem BioAssay (NCI).
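Cells were grown in 96-well plates and exposed to each compound for 48 hours at five concentrations; endpoints were interpolated linearly between bracketing concentrations, or set to the highest concentration if not reached. At the TGI there is no net growth.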

What was measured:
Test in all cases: NCI-60 cell line screen, 48 h
A549 NSCLC = test system: A549 NSCLC
TK-10 renal = test system: TK-10 renal
NCI-H460 lung = test system: NCI-H460 lung
A498 renal = test system: A498 renal
NCI-H23 lung = test system: NCI-H23 lung
U251 CNS = test system: U251 CNS
UACC-257 melanoma = test system: UACC-257 melanoma
COLO 205 colon = test system: COLO 205 colon
ACHN renal = test system: ACHN renal
IGROV1 ovarian = test system: IGROV1 ovarian
KM12 colon = test system: KM12 colon
NCI/ADR-RES ovarian = test system: NCI/ADR-RES ovarian

Structure (SMILES) | TGI (A549 NSCLC) [µM] | TGI (TK-10 renal) [µM] | TGI (NCI-H460 lung) [µM] | TGI (A498 renal) [µM] | TGI (NCI-H23 lung) [µM] | TGI (U251 CNS) [µM] | TGI (UACC-257 melanoma) [µM] | TGI (COLO 205 colon) [µM] | TGI (ACHN renal) [µM] | TGI (IGROV1 ovarian) [µM] | TGI (KM12 colon) [µM] | TGI (NCI/ADR-RES ovarian) [µM]
COc1ccc2[nH]c(C(=O)N3CC(CCl)c4ccc([N+](=O)[O-])cc43)cc2c1 (stereo not given) | > 100 | > 100 | > 100 | > 100 | > 100 | > 100 | > 100 | > 100 | > 100 | > 100 | > 100 | > 100
C=CCC1NCCC2=C1C(S(=O)(=O)c1ccc(C)cc1)c1ccccc12 (stereo not given) | 29.2 | 32.7 | 26.2 | 33.2 | 36.4 | 24 | > 53.4 | 4.29 | 24.3 | 23.3 | 22.6 | 28.5
COC(=O)C1(NC(=O)C(N)CC(=O)O)C(C)C1C (stereo not given) | > 100 | > 100 | > 100 | > 100 | > 100 | > 100 | > 100 | > 100 | > 100 | > 100 | > 100 | > 100
NCCCCNCCCN | > 100 | > 100 | > 100 | > 100 | > 100 | > 100 | > 100 | > 100 | > 100 | > 100 | > 100 | > 100
C[C@H](CC[C@@H](O)C(C)(C)O)[C@H]1CC[C@@]2(C)[C@@H]3CC=C4[C@@H](CC[C@H](OC5OC(CO)C(O)C(O)C5O)C4(C)C)[C@]3(C)C(=O)C[C@]12C (stereo not given in full) | > 100 | > 100 | > 100 | > 100 | > 100 | > 100 | > 100 | > 100 | 98.5 | 44.3 | > 100 | > 100
